Assay results reported in patent US20120238554A1, “SALTS OF POTASSIUM ATP CHANNEL OPENERS AND USES THEREOF” (priority 2007, published 2012).
“Also recorded” adds a separate entry of the source. Counter-ions that a name gives are not always drawn. Like-named read-outs stand apart in the source and are kept apart here. Blank lines part the entries; values can stand above or below the molecule they belong to.

Experiments:
[1] = Bioavailability of diazoxide choline and related molecules; conditions: male mice; for AUC0-6 / Cmax: Oral gavage, single 50 mg/kg dose; for Relative oral bioavail.: ratio of AUC0-6 to that of the IV dose of diazoxide choline
[2] = Solubility screen in organic solvents
[3] = Moisture sorption analysis; assay type: physicochemical
Experimental: Moisture Sorption Analysis was performed with a Hiden IGAsorp Moisture Sorption Instrument, Samples were first dried at 0% relative humidity at 25° C. until an equilibrium weight was reached, or for a maximum of 4 hours. Samples were then subjected to an isothermal (25° C.) scan from 10-90% relative humidity in steps of 10%. The samples were allowed to equilibrate to an asymptotic weight at each point for a maximum of 4 hours. Following absorption, a desorption scan from […] relative humidity (at 25° C.) was run in steps of −10%, again allowing a maximum of 4 hours for the samples to equilibrate. The resulting samples after desorption were dried at 80° C. for two hours and analyzed by XRPD.

[4] = Form conversion and degradation under thermal stress (60° C.)
Experimental: Studies were also conducted to evaluate the likelihood for conversion and degradation under thermal stress.

[5] = Slurry studies of inter-conversion of the solid form; conditions: room temperature
[6] = 50/50 mixtures of potassium salt Forms C, D, F, ethyl acetate, acetonitrile, isopropanol

SMILES: O=S1(=O)N=C(NC2CCC2)Nc2ccc(Br)cc21
AUC0-6 [1]: 0.8 ± 0.126 µg·h/mL
Cmax [1]: 0.181 ± 0.016 µg/mL
Relative oral bioavail. [1]: 0.6%

SMILES: CC(C)NC1=NS(=O)(=O)c2cc(Cl)c(F)cc2N1
AUC0-6 [1]: 0.313 ± 0.015 µg·h/mL
Cmax [1]: 0.08 ± 0.012 µg/mL
Relative oral bioavail. [1]: 0.2%

SMILES: CC1=NS(=O)(=O)c2cc(Cl)ccc2N1 [Diazoxide Potassium Salt]
Soluble ([2]; Acetone, 0.40 mg/mL, 55 ° C.): Yes
Conc. ([2]; CH2Cl2, 55 ° C.): 260 µg/mL
Soluble ([2]; CH2Cl2, […], 55 ° C.): No
Soluble ([2]; DMF, >6.40 mg/mL, rt): Yes
Conc. ([2]; DMF, rt): >6400 µg/mL
Conc. ([2]; Dioxane, 55 ° C.): 280 µg/mL
Soluble ([2]; Dioxane, […], 55 ° C.): No
Conc. ([2]; EtOAc, 55 ° C.): 360 µg/mL
Soluble ([2]; EtOAc, […], 55 ° C.): No
Conc. ([2]; EtOH, 55 ° C.): 2930 µg/mL
Soluble ([2]; EtOH, […], 55 ° C.): Yes
Soluble ([2]; Heptane, 0.24 mg/mL, 55 ° C.): No
Conc. ([2]; Heptane, 55 ° C.): 240 µg/mL
Conc. ([2]; IPA, 55 ° C.): 2100 µg/mL
Soluble ([2]; IPA, […], 55 ° C.): Yes
Conc. ([2]; IPAc, 55 ° C.): 340 µg/mL
Soluble ([2]; IPAc, […], 55 ° C.): No
Soluble ([2]; MEK, 0.30 mg/mL, 55 ° C.): Partially
Conc. ([2]; MEK, 55 ° C.): 300 µg/mL
Conc. ([2]; MTBE, 55 ° C.): 360 µg/mL
Soluble ([2]; MTBE, […], 55 ° C.): No
Soluble ([2]; MeCN, 0.85 mg/mL, 55 ° C.): Yes
Conc. ([2]; MeCN, 55 ° C.): 850 µg/mL
Soluble ([2]; MeOH, 6.00 mg/mL, 55 ° C.): Yes
Conc. ([2]; MeOH, 55 ° C.): 6000 µg/mL
Conc. ([2]; THF, 55 ° C.): 360 µg/mL
Soluble ([2]; THF, […], 55 ° C.): Partially
Conc. ([2]; Toluene, 55 ° C.): 280 µg/mL
Soluble ([2]; Toluene, […], 55 ° C.): No
Soluble ([2]; Water, 0.30 mg/mL, 55 ° C.): No
Soluble ([2]; c-Hexane, 0.30 mg/mL, 55 ° C.): No
Conc. ([2]; c-Hexane, 55 ° C.): 300 µg/mL
solubility ([2]; water, 55 °C): 0.3 mg/mL

SMILES: CC(C)=O.CC1=NS(=O)(=O)c2cc(Cl)ccc2[N-]1.CC1=NS(=O)(=O)c2cc(Cl)ccc2[N-]1.[K+].[K+] [diazoxide potassium salt Form C]
crystalline form after moisture sorption/desorption (XRPD) [3]: consistent with Form D
Moisture Sorption (hygroscopicity) ([3]; 25° C.): hygroscopic
water absorbed ([3]; 90% RH, 25° C.): approximately 47 wt %
form conversion and degradation under thermal stress (XRPD, DSC) ([4]; 60° C., closed, protected from light, 7 and 14 days): stable
inter-conversion of the solid form in slurry [5, 6]: readily converted to Form D; also recorded: conversion to Form D was observed in all solvents

SMILES: CC1=NS(=O)(=O)c2cc(Cl)ccc2[N-]1.CC1=NS(=O)(=O)c2cc(Cl)ccc2[N-]1.O.[K+].[K+] [diazoxide potassium salt Form D]
crystalline form after moisture sorption/desorption (XRPD) [3]: consistent with Form D
Moisture Sorption (hygroscopicity) ([3]; 25° C.): hygroscopic
inter-conversion of the solid form in slurry [5, 6]: conversion to Form D was observed in all solvents

SMILES: C1COCCO1.CC1=NS(=O)(=O)c2cc(Cl)ccc2[N-]1.CC1=NS(=O)(=O)c2cc(Cl)ccc2[N-]1.[K+].[K+] [diazoxide potassium salt Form F]
crystalline form after moisture sorption/desorption (XRPD) [3]: consistent with Form D
Moisture Sorption (hygroscopicity) ([3]; 25° C.): hygroscopic
water absorbed ([3]; 90% RH, 25° C.): ~22 wt %
inter-conversion of the solid form in slurry [5, 6]: readily converted to Form D; also recorded: conversion to Form D was observed in all solvents

Now from value to molecule, other results behind:

AUC0-6 [1]: 0.089 ± 0.016 µg·h/mL
Cmax [1]: 0.024 ± 0.01 µg/mL
Relative oral bioavail. [1]: 0.06%
SMILES: O=S1(=O)N=C(NC2CCC2)Nc2ccc(F)cc21

AUC0-6 [1]: 3.59 µg·h/mL
Cmax [1]: 1.56 µg/mL
Relative oral bioavail. [1]: 2.6%
SMILES: COc1ccc2c(c1)NC(NC(C)C)=NS2(=O)=O

Moisture Sorption (hygroscopicity) ([3]; 25° C., listed as Form A): Hygroscopic - deliquesced
water absorbed ([3]; 60% RH, 25° C., listed as Form A): 2.4 wt %
crystalline form after moisture sorption/desorption (XRPD) ([3]; listed as Form A): consistent with Form A
form conversion and degradation under thermal stress (XRPD, DSC) [4]: Started to convert to Form
SMILES: CC1=Nc2ccc(Cl)cc2S(=O)(=O)[N-]1.C[N+](C)(C)CCO [diazoxide choline salt Form A]
inter-conversion of the solid form in slurry ([5]; 7 and 14 days, n-heptane, dichloromethane, toluene (Table 16 Form B: CH2Cl2, THF, t-AmOH), listed as Form A): conversion to Form B was observed after seven days; also recorded: readily converted to Form B; also recorded: Converted to Form B after 7

water absorbed ([3]; 60% RH, 25° C., listed as Form B): 7.4 wt %
moisture absorbed ([3]; 70% relative humidity, 25° C.): over 14.5%
crystalline form after moisture sorption/desorption (XRPD) ([3]; listed as Form B): remained in the Form B crystal structure
form conversion and degradation under thermal stress (XRPD, DSC) [4]: Stable after 14 days at
SMILES: CC1=Nc2ccc(Cl)cc2S(=O)(=O)[N-]1.C[N+](C)(C)CCO [diazoxide choline salt Form B]
Moisture Sorption (hygroscopicity) ([3]; 25° C., listed as Form B): hygroscopic; also recorded: Hygroscopic -
inter-conversion of the solid form in slurry ([5]; 7 and 14 days, n-heptane, dichloromethane, toluene (Table 16 Form B: CH2Cl2, THF, t-AmOH), listed as Form B): form conversion was not observed; also recorded: Stable after 14 days in
